From article PMC7996328, “Design, Synthesis, and Biological Evaluation of a Series of 5- and 7-Hydroxycoumarin Derivatives as 5-HT1A Serotonin Receptor Antagonists” (Pharmaceuticals, 2021)

Legend:
5-HT2A receptor = target: T1, 5-HT2A receptor (Rattus norvegicus, UniProt P14842); assay: 5-HT2A competition binding assay, [3H]ketanserin, frontal cortex homogenates; settings: [3H]ketanserin 1 nM, read-out: Ki (nM ± SEM) (converted)
T1 construct: from tissue; host or cells: rat frontal cortex (male SD), membrane homogenate

[1] = Solubility under experimental conditions of the 5-HT1A assay; type: physicochemical; settings: reason for not testing in 5-HT1A assay
Description: Compounds were dissolved in 9.5% DMSO and 0.5% Kolliphor® EL (Sigma Aldrich, Taufkirchen, Germany). Serial dilutions of the compounds tested (10^−10–10^−5 M) were incubated in triplicate with 0.8 nM [^35S]GTPγS in assay buffer (50 mM Tris-HCl, pH = 7.4, 1 mM EGTA, 3 mM MgCl2, 100 mM NaCl, 30 µM GDP) and 8-OH-DPAT (final concentration 1.4 × 10^−7 M) in the final assay volume of 250 µL. Hippocampal homogenates (15 μg/mL) were added to each tube as the 5-HT1A receptor source. The final DMSO and Kolliphor® EL concentrations were 0.95% and 0.05%, respectively. Non-specific binding was determined with 10 µM of unlabeled GTPγS. The reaction mixture was incubated for 90 min at 37 °C in a volume of 250 µL. Next, 96-well Unifilter® Plates (Perkin Elmer, Waltham, MA, USA) were presoaked for 1 h with 50 mM Tris-HCl (pH = 7.4) before harvesting. The reaction was terminated by vacuum filtration onto filter plates with the FilterMate Harvester® (Perkin Elmer, Waltham, MA, USA). The samples were then rapidly washed with 2 mL of 50 mM Tris-HCl (pH = 7.4) buffer. Filter plates were dried for 2 h at 50 °C. After drying, 45 µL of EcoScint-20 scintillant (Perkin Elmer) was added to every well. Radioactivity was counted in a Trilux MicroBeta^2 counter (Perkin Elmer). Data were analyzed with GraphPad Prism 5.0 software (GraphPad Software, San Diego, CA, USA, www.graphpad.com). Curves were fitted with a one-site non-linear regression model. Efficacy (Emax) and half maximal inhibitory concentration (IC50) were calculated from the Cheng–Prusoff equation and expressed as means ± SEM.

T1 sequence (P14842 whole entry): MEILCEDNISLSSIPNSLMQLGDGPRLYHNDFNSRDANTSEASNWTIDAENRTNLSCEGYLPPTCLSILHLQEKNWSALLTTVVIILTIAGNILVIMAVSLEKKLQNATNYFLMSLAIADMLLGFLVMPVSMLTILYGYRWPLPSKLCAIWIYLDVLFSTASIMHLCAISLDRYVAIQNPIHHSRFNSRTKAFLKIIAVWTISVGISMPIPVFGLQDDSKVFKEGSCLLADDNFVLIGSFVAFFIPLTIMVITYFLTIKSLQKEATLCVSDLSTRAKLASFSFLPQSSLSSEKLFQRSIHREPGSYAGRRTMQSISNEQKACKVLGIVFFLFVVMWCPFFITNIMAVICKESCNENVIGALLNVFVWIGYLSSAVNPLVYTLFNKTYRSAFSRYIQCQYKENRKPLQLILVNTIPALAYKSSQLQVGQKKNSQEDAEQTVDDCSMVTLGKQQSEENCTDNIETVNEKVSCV

Row | melting point | Ki (5-HT2A receptor) | solubility under experimental conditions [1] | SMILES
1 | 110 to 112 °C | 1490 ± 466 nM | very poor solubility | CC(=O)c1c(OCCN2CCN(c3cccc(Br)c3)CC2)ccc2c(C)cc(=O)oc12 [Compound 6g, 8-acetyl-7-(2-[4-(3-bromohenyl)piperazin-1-yl]ethoxy)-4-methylchromen-2-one]
2 | 116 to 118 °C | – | very poor solubility | CC(=O)c1c(C)cc2oc(=O)cc(C)c2c1OCCCCCN1CCN(c2ccccc2C#N)CC1 [Compound 3j, 6-acetyl-5-(5-(4-(2-cyanophenyl)piperazin-1-yl)pentyloxy)-4,7-dimethyl-2H-chromen-2-one]
3 | 107 to 109 °C | – | very poor solubility | Cc1cc(OCCCCCN2CCN(c3cccc(Br)c3)CC2)c2c(C)cc(=O)oc2c1 [Compound 1g, 5-(5-(4-(3-bromophenyl)piperazin-1-yl)pentyloxy)-4,7-dimethyl-2H-chromen-2-one]
4 | 132 to 134 °C | – | very poor solubility | Cc1ccc(C)c(N2CCN(CCCCCOc3cc(C)cc4oc(=O)cc(C)c34)CC2)c1 [Compound 1d, 5-(5-(4-(2,5-dimethylphenyl)piperazin-1-yl)pentyloxy)-4,7-dimethyl-2H-chromen-2-one]
